Measured values published in article PMC13310753, “Discovery of actinomycin derivatives with improved selectivity against malaria parasites from a Streptomyces culture library” (The Journal of Antibiotics, 2026).
Read-outs that look alike come from different tables or passages of the source. Numbered stars: 1 amine (or outer) side, 2 acyl side, 3 side chain; on linkers, the order of the positions; unused ones are H or OH. Bridge positions count the residues as written; N and C are the ends. Square brackets hold non-standard residues; d marks the D form. Peptide text beside a SMILES is read from it. I, II: the chains in the order shown. Actinocin(1to9) = Cc1c2oc3c(C)ccc(C(=O)[*:2])c3nc-2c(C(=O)[*:1])c(N)c1=O; Actinocin(9to1) = Cc1c2oc3c(C)ccc(C(=O)[*:1])c3nc-2c(C(=O)[*:2])c(N)c1=O; Pro(4-oxo) = O=C1CN[C@H](C(=O)O)C1; Hyp = O=C(O)[CH]1C[CH](O)CN1; NMeV = CN[CH](C(=O)O)C(C)C; Sar = CNCC(=O)O

Legend:
P. falciparum strain 3D7 = test: microbe, parasite or virus in culture; type: cell-based, Plasmodium falciparum; details: for SI, selectivity index (CC50/IC50): CC50 in AMB cells / IC50 against 3D7; for IC50: Plasmodium falciparum, 3D7, 48 h, read-out: IC50 (50% inhibitory concentration), in vitro antimalarial activity; for antimalarial activity of purified components (in words): bioassay during purification using P. falciparum strains 3D7 and Dd2
Description: (§1) Malarial parasite cultures and AMB cells were previously described. The detailed experimental procedure is described in the Supplementary data. Antimalarial activity and cytotoxicity were evaluated at 50% inhibitory concentration (IC50) and 50% cytotoxic concentration (CC50), respectively. We here analyzed these activities on purified actinomycin X2 (1), actinomycin X0ß (2), and commercially available actinomycin D (3). The SI is calculated as CC50/IC50.
(§2) Blood stages of P. falciparum 3D7 cell lines were provided by Nagasaki University with support in part by NEKKEN Bio-Resource Center (NEKKEN BRC), Institute of Tropical Medicine, Nagasaki University as a part of National BioResource Project (NBRP), MEXT, Japan. Human erythrocytes used for parasite culture were obtained from the Japan Red Cross Society (Registration No. 28J0060). The 3D7 parasites were cultivated in O+ erythrocytes in 2% hematocrit in Roswell Park Memorial Institute (RPMI) 1640-based complete medium (CM) supplemented with 5% AB+ human serum (prepared from plasma), 0.25% AlbuMax I (Gibco, Waltham, MA), 12.5 µg/mL gentamycin, and […] hypoxanthine […]
(§3) Primary adult mouse brain (AMB) cells were isolated and established at the NEKKEN Bio-Resource Center, according to previously established methods (Ref. 2). Briefly, the primary cells, which were passaged several times to be adapted to in vitro conditions, were maintained in Minimum Essential Medium (MEM) (Wako Pure Chemicals Industrial Ltd, Osaka, Japan) supplemented with 10% fetal bovine serum (FBS), penicillin/streptomycin solution (100 units/mL penicillin G and […] streptomycin sulfate) (Wako Pure Chemicals Industrial Ltd) and incubated at 37°C and 5% CO2. For the cytotoxicity assay, primary cells that had completed three passages were used.
Antimalarial growth inhibition assays
The antimalarial growth inhibition assay to determine 50% inhibition concentration (IC50) of compounds was performed as described before, with a minor modification (Ref. 3).
Briefly, The P. falciparum cultures (0.75% parasitemia and 2% hematocrit) were seeded on a 96-well black plate with the clear bottom (Thermo Fisher Scientific, Rochester, NY) and […]
exposed to compounds serially diluted threefold over a concentration range of 2.5 µg/mL to 0.13 ng/mL at the final concentration. As a result of the dose-response assay, IC50 value, the concentration of drug required to reduce parasites by 50% (10(log(A/B) × (50 ‒ C)/(D ‒ C) + log(B)) was obtained, where A represents the lowest concentration at which the percentage inhibition was greater than 50%, B is the highest concentration value at which the percentage inhibition was less than 50%, C is the percentage inhibition value of the sample at concentration B, and D is the percentage inhibition value of the sample at concentration A.
The culture plates were kept at 37°C under mixed gas (5% O2, 5% CO2, and 90% N2) for 48 hrs. Each in vitro experiment was performed in duplicate wells and repeated twice. The parasite growth inhibition was obtained by dividing the test samples' parasitemia by the negative controls' average.
SYBR Green – I (Lonza, Rockland, ME) assay technique was used to detect the parasite DNA. The RBCs were lysed after 48 hrs of incubation by adding 100 µL of lysis buffer (20 mM Tris, 10 mM EDTA, 0.01% saponin (wt/vol), and 0.1% Triton X-100 (vol/vol), pH 7.5) and 1× final concentration of SYBR Green - I into each well. The plates were incubated at room temperature for 1 hr with gentle agitation. The relative fluorescence units (RFU) per well were then determined at 485–515 nm (filter) for 0.1 sec per exposure using a multilabel plate reader (ARVO 1430; Perkin Elmer, Waltham, MA, USA).
Cytotoxicity assay was performed to determine 50% cytotoxic concentration (CC50) as previously described with minor modification (Ref. 4). Briefly, AMB cells (1×10^4 cells) were seeded in a 96-well plate (black plate with a clear bottom) and incubated at 37°C in a CO2

[1] = Cytotoxicity assay (Alamar Blue), primary adult mouse brain cells; type: cell-based; details: AMB cells, two independent experiments in duplicate wells, read-out: CC50 (50% cytotoxic concentration)
Description: as §1, §2
as §3, with “used. […]” for “used.”
SYBR Green – I (Lonza, Rockland, ME) assay technique was used to detect the parasite DNA. […] The relative fluorescence units (RFU) per well were then determined at 485–515 nm (filter) for 0.1 sec per exposure using a multilabel plate reader (ARVO 1430; Perkin Elmer, Waltham, MA, USA). […]

SMILES | SI value relative to that of actinomycin D (P. falciparum strain 3D7) | SI, selectivity index (CC50/IC50) (P. falciparum strain 3D7) | IC50 (P. falciparum strain 3D7; P. falciparum 3D7, 48 hrs, two independent experiments in duplicate wells) | antimalarial activity of purified components (in words) (P. falciparum strain 3D7) | SI value relative to that of actinomycin D (P. falciparum strain 3D7; listed as 2) | CC50 ([1]; 48 hrs) | IC50 (P. falciparum strain 3D7) | CC50 at 48 h [1] | SI value relative to that of actinomycin D (P. falciparum strain 3D7; listed as 1)
Cc1c2oc3c(C)ccc(C(=O)NC4C(=O)NC(C(C)C)C(=O)N5CCCC5C(=O)N(C)CC(=O)N(C)C(C(C)C)C(=O)OC4C)c3nc-2c(C(=O)NC2C(=O)NC(C(C)C)C(=O)N3CC(O)CC3C(=O)N(C)CC(=O)N(C)C(C(C)C)C(=O)OC2C)c(N)c1=O (centres unmarked) [actinomycin X0ß] (I: TV[Hyp][Sar][NMeV] / II: TVP[Sar][NMeV]; ester I:1-I:C, II:1-II:C; linker I:N-II:N via Actinocin(1to9); configuration not given here) | seven | 106 | 7.69 nM | significant antimalarial activity | 7 fold | 818 nM | – | – | –
Cc1c2oc3c(C)ccc(C(=O)N[C@@H]4C(=O)N[C@H](C(C)C)C(=O)N5CCC[C@H]5C(=O)N(C)CC(=O)N(C)[C@@H](C(C)C)C(=O)O[C@@H]4C)c3nc-2c(C(=O)N[C@@H]2C(=O)N[C@H](C(C)C)C(=O)N3CCC[C@H]3C(=O)N(C)CC(=O)N(C)[C@@H](C(C)C)C(=O)O[C@@H]2C)c(N)c1=O [actinomycin D] (I: T[dV]P[Sar][NMeV] / II: T[dV]P[Sar][NMeV]; ester I:1-I:C, II:1-II:C; linker I:N-II:N via Actinocin(9to1)) | – | 14.3 | – | – | – | – | 0.469 nM | 6.71 nM | –
Cc1c2oc3c(C)ccc(C(=O)N[C@@H]4C(=O)N[C@H](C(C)C)C(=O)N5CCC[C@H]5C(=O)N(C)CC(=O)N(C)[C@@H](C(C)C)C(=O)O[C@@H]4C)c3nc-2c(C(=O)N[C@@H]2C(=O)N[C@H](C(C)C)C(=O)N3CC(=O)C[C@H]3C(=O)N(C)CC(=O)N(C)[C@@H](C(C)C)C(=O)O[C@@H]2C)c(N)c1=O [actinomycin X2] (I: T[dV][Pro(4-oxo)][Sar][NMeV] / II: T[dV]P[Sar][NMeV]; ester I:1-I:C, II:1-II:C; linker I:N-II:N via Actinocin(1to9)) | – | 27.9 | – | significant antimalarial activity | – | – | 0.241 nM | 6.71 nM | 2 fold
